Laboratory results as given in publication PMC7937321 (Genes and Environment, 2021).

How the values were obtained:
TK6 cells = experiment: Toxicoproteomic analysis of treated TK6 cells (LC-MS/MS, DEPs, enrichment analysis); type: cell-based, human; details: specific DEPs 24-h 800 μg/mL
Description: We conducted a proteomic analysis using TK6 cells treated by 4-nitroanthranilic acid that was negative in the short-term treatment and positive in the 24 h treatment. HC Blue No. 2 gave also same test results. […]
Raw MS data were processed by MaxQuant (version 1.6.3.3) supported by the Andromeda search engine for peak detection and quantification. […]
All NaN values of log2 LFQ intensities were converted to − 7, which is approximately equivalent to the minimum value of the LFQ intensities observed in the present study. Then, fold change values were calculated by dividing LFQ intensities (antilogarithms of the log2 LFQ intensities) into sample treated groups by intensities in non-treated (control) groups, respectively (4 and 24 h treated groups). Then, log2 fold changes were calculated. […]

rodent = details: rodent; ref [20]-[41], Table 2; cited from earlier work

## Nc1cc([N+](=O)[O-])ccc1C(=O)O [4-Nitroanthranilic acid]
TK6 cells; Down-regulated
  Count: GO:0005515 ~ protein binding: 34
TK6 cells; Up-regulated
  Count: GO:0005515 ~ protein binding: 88
rodent
  Carcinogenicity Studies: Neg
